Data on 14 molecules can be found in ChEMBL document CHEMBL5674860, “Optimized Dual-Glo Assay to identify co-culture-induced drug vulnerabilities in 3D CRC models” (2024).

Each structure is given as a SMILES string.

What all share (assay type): functional, Homo sapiens
Holding throughout (parameters): dose or concentration left out as unconfirmed

Assay [1] has as its system Colon cancer organoid. Briefly: Optimized Dual-Glo assay to identify co-culture induced drug vulnerabilities using donated chemical probes and chemogenomics kinase set in O06 CRC organoid and F06 CAF mono and co-culture. […] Cell viability is reported both mono and co-culture models.
For assay [2], the system named is Colon cancer organoid. In words: Optimized Dual-Glo assay to identify co-culture induced drug vulnerabilities using donated chemical probes and chemogenomics kinase set in O14 CRC organoid and F14 CAF mono and co-culture. […] Cell viability is reported both mono and co-culture models.
The subject of assay [3] is Colon cancer organoid. Briefly: Optimized Dual-Glo assay to identify co-culture induced drug vulnerabilities using donated chemical probes and chemogenomics kinase set in O20 CRC organoid and F20 CAF mono and co-culture. […] Cell viability is reported both mono and co-culture models.
Where [4] appears, read: Culture type Co-Culture, Transduced with Lucferase2-P2A-EGFP lentivirus.
The mark [5] stands for this setting: Culture type Co-Culture, Transduced with Renilla-dsRed lentivirus.
The mark [6] stands for this setting: Culture type Mono-Culture, Transduced with Lucferase2-P2A-EGFP lentivirus.
Setting [7] is: Culture type Mono-Culture, Transduced with Renilla-dsRed lentivirus.

Turning to `CN1CCN(c2ccc(OC(F)(F)F)c(Nc3ncc4c(n3)-c3c(c(C(N)=O)nn3CCO)CC4)c2)CC1` [ONVANSERTIB], the “Cell Viability” value in assay [1] (setting [4]) worked out at 2.834%; in assay [1] (setting [5]), 160.245%; in assay [1] (setting [6]) it was 4.275%; in assay [1] (setting [7]), 93.5315%; in assay [2] (setting [4]), 3.512%; in assay [2] (setting [5]) it was 162.986%. The “Cell Viability” value in assay [2] (setting [6]) came out at 6.811%; in assay [2] (setting [7]), 81.4434%; in assay [3] (setting [4]) it was 2%; in assay [3] (setting [5]), 184.086%; in assay [3] (setting [6]), 2.415%; in assay [3] (setting [7]) it was 100.341%.
Regarding `Nc1nc(NCc2ccccc2)nc(-c2ccccc2CO)n1` [Ogerin], the “Cell Viability” value in assay [1] (setting [4]) is given as 100.001%; in assay [1] (setting [5]), 107.856%; in assay [1] (setting [6]), 82.0596%; in assay [1] (setting [7]) it was 96.3715%; in assay [2] (setting [4]), 77.8704%; in assay [2] (setting [5]), 129.106%. The “Cell Viability” value in assay [2] (setting [6]) is 105.546%; in assay [2] (setting [7]), 105.714%; in assay [3] (setting [4]), 80.9307%; in assay [3] (setting [5]), 98.0569%; in assay [3] (setting [6]) it was 82.507%; in assay [3] (setting [7]) it was 92.5232%.
With `CC(=O)NCC(=O)N1[C@@H]2CC[C@H]1c1ccc(Nc3ncc(C(F)(F)F)c(NC4CCC4)n3)cc12` [PF-03814735], the “Cell Viability” value in assay [1] (setting [4]) was determined as 12.5382%; in assay [1] (setting [5]), 132.747%; in assay [1] (setting [6]), 7.137%; in assay [1] (setting [7]), 42.3421%; in assay [2] (setting [4]), 21.4424%; in assay [2] (setting [5]), 92.7993%. Moreover, the “Cell Viability” value turned out to be 23.2786% in assay [2] (setting [6]); 69.2613% in assay [2] (setting [7]); 4.585% in assay [3] (setting [4]); 155.761% in assay [3] (setting [5]); 7.993% in assay [3] (setting [6]); 63.4074% in assay [3] (setting [7]).
In the case of `OCCn1cc(-c2cnc3nnn(Cc4ccc5ncccc5c4)c3n2)cn1` [PF-04217903], the “Cell Viability” value in assay [1] (setting [4]) is given as 88.0795%; in assay [1] (setting [5]), 107.387%; in assay [1] (setting [6]), 104.073%; in assay [1] (setting [7]), 94.3108%; in assay [2] (setting [4]), 71.8183%; in assay [2] (setting [5]), 123.95%. For the same molecule, the “Cell Viability” value in assay [2] (setting [6]) turned out to be 91.8486%; in assay [2] (setting [7]) it was 91.0833%; in assay [3] (setting [4]) it was 121.611%; in assay [3] (setting [5]), 97.2338%; in assay [3] (setting [6]), 113.154%; in assay [3] (setting [7]), 101.829%.
Turning to `C[C@H](c1ccc(F)cc1)N(Cc1cccc(C(=O)O)c1)C(=O)c1cnc2ccccc2c1` [PF-05105679], the “Cell Viability” value in assay [1] (setting [4]) turned out to be 133.625%; in assay [1] (setting [5]) it was 152.049%; in assay [1] (setting [6]), 106.722%; in assay [1] (setting [7]), 91.4083%; in assay [2] (setting [4]) it was 81.4426%; in assay [2] (setting [5]), 118.111%. Besides, the “Cell Viability” value worked out at 74.3119% in assay [2] (setting [6]); 99.7573% in assay [2] (setting [7]); 143.937% in assay [3] (setting [4]); 111.508% in assay [3] (setting [5]); 109.64% in assay [3] (setting [6]); 98.1235% in assay [3] (setting [7]).
As for `C[C@H](c1ccc(F)cc1)N(Cc1ccc(Cl)c(C(=O)O)c1)C(=O)c1cnc2ccccc2c1` [PF-05257137], the “Cell Viability” value in assay [1] (setting [4]) came to 116.801%; in assay [1] (setting [5]), 128.047%; in assay [1] (setting [6]), 124.519%; in assay [1] (setting [7]) it was 88.8687%; in assay [2] (setting [4]), 77.6621%; in assay [2] (setting [5]), 111.229%. Further, the “Cell Viability” value was 120.37% in assay [2] (setting [6]); 101.269% in assay [2] (setting [7]); 147.232% in assay [3] (setting [4]); 103.742% in assay [3] (setting [5]); 109.057% in assay [3] (setting [6]); 106.822% in assay [3] (setting [7]).
In the case of `COc1ncc(F)cc1CNc1ccc(Cc2c[nH]c3ncc(C)cc23)c(F)n1` [PLX-5622], the “Cell Viability” value in assay [1] (setting [4]) was 82.7626%; in assay [1] (setting [5]), 63.3822%; in assay [1] (setting [6]), 93.414%; in assay [1] (setting [7]) it was 61.0678%; in assay [2] (setting [4]), 95.8839%; in assay [2] (setting [5]), 46.3569%. Moreover, the “Cell Viability” value in assay [2] (setting [6]) is 130.226%; in assay [2] (setting [7]) it was 44.2586%; in assay [3] (setting [4]), 205.726%; in assay [3] (setting [5]) it was 55.6932%; in assay [3] (setting [6]) it was 133.198%; in assay [3] (setting [7]), 66.7491%.
In the case of `Cc1noc(C)c1-c1cnc2c(-c3ccc(C(=O)O)cc3)cn([C@@H](C)c3ccccn3)c2c1` [PLX-51107], the “Cell Viability” value in assay [1] (setting [4]) was 26.8486%; in assay [1] (setting [5]) it was 312.702%; in assay [1] (setting [6]), 23.3668%; in assay [1] (setting [7]), 265.011%; in assay [2] (setting [4]), 32.5617%; in assay [2] (setting [5]) it was 348.195%. For the same molecule, the “Cell Viability” value was 30.1969% in assay [2] (setting [6]); 207.472% in assay [2] (setting [7]); 17.6563% in assay [3] (setting [4]); 177.825% in assay [3] (setting [5]); 24.073% in assay [3] (setting [6]); 120.563% in assay [3] (setting [7]).
For `Cn1cc(CNCC2CCN(c3ncc(C(=O)NO)cn3)CC2)c2ccccc21` [QUISINOSTAT], the “Cell Viability” value in assay [1] (setting [4]) is reported as 1.095%; in assay [1] (setting [5]) it was 190.694%; in assay [1] (setting [6]) it was 6.147%; in assay [1] (setting [7]) it was 20.2291%; in assay [2] (setting [4]) it was 0.9193%; in assay [2] (setting [5]) it was 88.4975%. Further, the “Cell Viability” value in assay [2] (setting [6]) was 0.7655%; in assay [2] (setting [7]), 72.0368%; in assay [3] (setting [4]), 1.342%; in assay [3] (setting [5]) it was 37.1921%; in assay [3] (setting [6]), 2.078%; in assay [3] (setting [7]) it was 3.907%.
For `CC(C)(C)c1cc(NC(=O)Nc2ccc(-c3cn4c(n3)sc3cc(OCCN5CCOCC5)ccc34)cc2)no1` [QUIZARTINIB], the “Cell Viability” value in assay [1] (setting [4]) stood at 26.1053%; in assay [1] (setting [5]), 134.448%; in assay [1] (setting [6]) it was 20.7828%; in assay [1] (setting [7]), 88.706%; in assay [2] (setting [4]), 40.6861%; in assay [2] (setting [5]), 210.95%. In addition, the “Cell Viability” value amounted to 46.4384% in assay [2] (setting [6]); 89.2922% in assay [2] (setting [7]); 58.7644% in assay [3] (setting [4]); 111.29% in assay [3] (setting [5]); 48.0043% in assay [3] (setting [6]); 98.7475% in assay [3] (setting [7]).
For `CN(C)C(=O)c1cc2cnc(Nc3ccc(N4CCNCC4)cn3)nc2n1C1CCCC1` [RIBOCICLIB], the “Cell Viability” value is reported as 54.2961% in assay [1] (setting [4]); 126.231% in assay [1] (setting [5]); 30.4641% in assay [1] (setting [6]); 111.56% in assay [1] (setting [7]); 59.6816% in assay [2] (setting [4]); 144.098% in assay [2] (setting [5]). The “Cell Viability” value was determined as 62.61% in assay [2] (setting [6]); 96.4403% in assay [2] (setting [7]); 36.9577% in assay [3] (setting [4]); 144.514% in assay [3] (setting [5]); 20.5669% in assay [3] (setting [6]); 95.5583% in assay [3] (setting [7]).
On to `O=C(CCCCCCNC(=O)c1cnc(N(c2ccccc2)c2ccccc2)nc1)NO` [RICOLINOSTAT], for which the “Cell Viability” value in assay [1] (setting [4]) turned out to be 80.064%; in assay [1] (setting [5]), 143.43%; in assay [1] (setting [6]), 66.4985%; in assay [1] (setting [7]) it was 158.366%; in assay [2] (setting [4]) it was 162.049%; in assay [2] (setting [5]), 119.991%. Besides, the “Cell Viability” value in assay [2] (setting [6]) came out at 164.32%; in assay [2] (setting [7]), 101.457%; in assay [3] (setting [4]), 158.742%; in assay [3] (setting [5]), 130.22%; in assay [3] (setting [6]), 89.6658%; in assay [3] (setting [7]), 107.525%.
For the molecule `C=CC(=O)Nc1ccc2[nH]c(=O)n(C3CCN(Cc4ccc(-c5ccc6c(c5)NC(=O)CO6)cc4)CC3)c2c1` [RL2578], the “Cell Viability” value was 88.4189% in assay [1] (setting [4]); 104.707% in assay [1] (setting [5]); 87.6184% in assay [1] (setting [6]); 83.8435% in assay [1] (setting [7]); 109.086% in assay [2] (setting [4]); 76.9187% in assay [2] (setting [5]). The “Cell Viability” value in assay [2] (setting [6]) came out at 101.444%; in assay [2] (setting [7]), 81.1144%; in assay [3] (setting [4]) it was 101.172%; in assay [3] (setting [5]), 98.7435%; in assay [3] (setting [6]) it was 76.3776%; in assay [3] (setting [7]), 83.481%.
In the case of `CN(C)CCOc1ccc(-c2nc(-c3ccncc3)c(-c3ccc4c(c3)CC/C4=N\O)[nH]2)cc1` [SB590885], the “Cell Viability” value in assay [1] (setting [4]) is recorded as 79.2379%; in assay [1] (setting [5]), 96.48%; in assay [1] (setting [6]) it was 138.873%; in assay [1] (setting [7]), 135.694%; in assay [2] (setting [4]) it was 125.618%; in assay [2] (setting [5]), 131.894%. In addition, the “Cell Viability” value came to 138.834% in assay [2] (setting [6]); 91.3736% in assay [2] (setting [7]); 155.192% in assay [3] (setting [4]); 68.1541% in assay [3] (setting [5]); 66.5679% in assay [3] (setting [6]); 111.294% in assay [3] (setting [7]).
